Measurements reported in ChEMBL document CHEMBL1201862, “PubChem BioAssay data set” (2004).
The source made the active and inactive calls.

Tests used:
[1] = biological target: T1, Ubiquitin-conjugating enzyme E2 N (Homo sapiens, UniProt P61088); assay type: functional;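 also: Dose-response confirmation in a TR-FRET assay detecting UBC13-driven polyubiquitin chain formation, inhibition measured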
T1 sequence (P61088 whole entry): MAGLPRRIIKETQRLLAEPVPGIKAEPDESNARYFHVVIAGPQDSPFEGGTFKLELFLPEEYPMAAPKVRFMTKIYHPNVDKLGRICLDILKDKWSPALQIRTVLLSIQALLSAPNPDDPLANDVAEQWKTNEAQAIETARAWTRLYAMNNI

Troponin, cardiac muscle = Troponin, cardiac muscle (Homo sapiens, UniProt P19429+P45379+P63316); assay: Fluorescence-based biochemical high throughput dose response assay for activators of the calcium sensitivity of cardiac Regulated Thin Filaments (RTF). [Related pubchem assays (depositor defined):AID493008, AID493018, AID504382, AID504383]; assay type: protein-complex assay
[2] = biological target: T2, E3 ubiquitin-protein ligase XIAP (Homo sapiens, UniProt P98170); assay: Counter Screen using XIAP-Bir3 for Chemical Antagonists of Bir1/2 domains of IAP-family anti-apoptotic proteins. [Related pubchem assays (depositor defined):AID1018, AID1449, AID1514, AID1638, AID1749, AID1750, AID488957, AID488963]
T2 sequence (P98170 whole entry): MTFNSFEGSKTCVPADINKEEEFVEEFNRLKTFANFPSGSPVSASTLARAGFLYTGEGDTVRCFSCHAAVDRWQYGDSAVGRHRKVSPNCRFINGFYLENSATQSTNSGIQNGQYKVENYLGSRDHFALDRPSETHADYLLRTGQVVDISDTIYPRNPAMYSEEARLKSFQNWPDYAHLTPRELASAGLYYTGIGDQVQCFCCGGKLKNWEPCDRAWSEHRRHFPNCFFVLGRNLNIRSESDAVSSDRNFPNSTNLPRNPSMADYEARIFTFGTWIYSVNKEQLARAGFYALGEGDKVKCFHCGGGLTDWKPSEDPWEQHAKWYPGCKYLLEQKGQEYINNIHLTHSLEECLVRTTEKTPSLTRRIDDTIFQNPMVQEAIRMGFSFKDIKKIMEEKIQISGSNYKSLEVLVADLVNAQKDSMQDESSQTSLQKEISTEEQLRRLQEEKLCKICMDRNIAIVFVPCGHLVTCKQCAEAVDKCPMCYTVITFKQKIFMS

[3] = biological target: T2, E3 ubiquitin-protein ligase XIAP; assay: XIAP antagonists, biochemical, IAP family, fluorescence polarization (AID 1018); assay type: functional
Beta-galactosidase = Beta-galactosidase (Escherichia coli, UniProt Q8VNN2); assay: PubChem AID 485352; assay type: functional
Sequence of Beta-galactosidase (Q8VNN2 whole entry): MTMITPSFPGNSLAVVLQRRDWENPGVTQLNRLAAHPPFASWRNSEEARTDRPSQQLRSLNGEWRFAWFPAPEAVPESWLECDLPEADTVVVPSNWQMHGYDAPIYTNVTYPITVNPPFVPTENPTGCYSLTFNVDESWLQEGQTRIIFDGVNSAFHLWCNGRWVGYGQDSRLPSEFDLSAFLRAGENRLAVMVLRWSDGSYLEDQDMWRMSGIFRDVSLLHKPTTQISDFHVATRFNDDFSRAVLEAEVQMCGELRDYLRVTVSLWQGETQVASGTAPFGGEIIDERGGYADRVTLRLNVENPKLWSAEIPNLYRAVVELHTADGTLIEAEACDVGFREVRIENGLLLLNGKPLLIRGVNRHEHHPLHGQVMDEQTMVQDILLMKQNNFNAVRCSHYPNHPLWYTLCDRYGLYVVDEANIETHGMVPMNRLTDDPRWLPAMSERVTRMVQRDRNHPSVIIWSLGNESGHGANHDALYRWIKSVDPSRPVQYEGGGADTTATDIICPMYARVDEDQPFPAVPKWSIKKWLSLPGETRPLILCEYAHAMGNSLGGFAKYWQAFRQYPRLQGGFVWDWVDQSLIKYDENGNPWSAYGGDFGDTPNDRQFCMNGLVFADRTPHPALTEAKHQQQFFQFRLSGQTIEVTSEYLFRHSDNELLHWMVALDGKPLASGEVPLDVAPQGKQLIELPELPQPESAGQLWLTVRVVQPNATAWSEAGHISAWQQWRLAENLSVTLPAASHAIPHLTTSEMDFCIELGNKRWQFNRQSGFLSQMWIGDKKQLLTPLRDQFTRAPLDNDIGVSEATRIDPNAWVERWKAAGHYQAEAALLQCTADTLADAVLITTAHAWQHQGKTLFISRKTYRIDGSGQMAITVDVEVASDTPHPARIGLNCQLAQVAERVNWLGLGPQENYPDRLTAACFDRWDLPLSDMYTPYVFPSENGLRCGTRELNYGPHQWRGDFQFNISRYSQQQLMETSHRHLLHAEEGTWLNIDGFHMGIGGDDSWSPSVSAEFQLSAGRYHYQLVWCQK

[4] = biological target: T3, Type-1 angiotensin II receptor (Homo sapiens, UniProt P30556); assay: AT1 receptor antagonists, dose response, selectivity assay for APJ receptor antagonist project, cell-based, uHTS hits (AID 463214); assay type: functional;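 also: antagonist potency against angiotensin II stimulated AT1 response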
T3 sequence (P30556 whole entry): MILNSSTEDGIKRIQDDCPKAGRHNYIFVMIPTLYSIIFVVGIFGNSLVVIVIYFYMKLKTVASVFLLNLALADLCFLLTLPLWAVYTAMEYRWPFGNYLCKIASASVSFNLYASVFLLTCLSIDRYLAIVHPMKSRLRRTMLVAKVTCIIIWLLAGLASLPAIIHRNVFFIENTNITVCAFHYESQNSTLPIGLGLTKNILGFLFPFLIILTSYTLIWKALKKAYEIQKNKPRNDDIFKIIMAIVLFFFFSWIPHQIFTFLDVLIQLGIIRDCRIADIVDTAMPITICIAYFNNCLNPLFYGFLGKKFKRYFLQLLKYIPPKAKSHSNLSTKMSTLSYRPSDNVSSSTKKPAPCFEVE

[5] = HEp-2 cell cytotoxicity, dose response, cytotoxicity control for RSV inhibitor project, HTS (AID 2410); assay type: functional; settings: human respiratory syncytial virus
Vero = assay: cells; assay type: functional, cell-based; settings: Chlorocebus sabaeus
Exodeoxyribonuclease V = biological target: T4, Exodeoxyribonuclease V (Escherichia coli (strain K12), UniProt P04993+P07648+P08394); assay: E. coli RecBCD inhibitors, dose response, counter-screen for AddAB inhibitor project, absorbance, V66 E. coli, mutant T4 phage (AID 492957); assay type: functional, cell-based, Escherichia coli str. K-12 substr. MG1655
T4 sequence (P04993 whole entry): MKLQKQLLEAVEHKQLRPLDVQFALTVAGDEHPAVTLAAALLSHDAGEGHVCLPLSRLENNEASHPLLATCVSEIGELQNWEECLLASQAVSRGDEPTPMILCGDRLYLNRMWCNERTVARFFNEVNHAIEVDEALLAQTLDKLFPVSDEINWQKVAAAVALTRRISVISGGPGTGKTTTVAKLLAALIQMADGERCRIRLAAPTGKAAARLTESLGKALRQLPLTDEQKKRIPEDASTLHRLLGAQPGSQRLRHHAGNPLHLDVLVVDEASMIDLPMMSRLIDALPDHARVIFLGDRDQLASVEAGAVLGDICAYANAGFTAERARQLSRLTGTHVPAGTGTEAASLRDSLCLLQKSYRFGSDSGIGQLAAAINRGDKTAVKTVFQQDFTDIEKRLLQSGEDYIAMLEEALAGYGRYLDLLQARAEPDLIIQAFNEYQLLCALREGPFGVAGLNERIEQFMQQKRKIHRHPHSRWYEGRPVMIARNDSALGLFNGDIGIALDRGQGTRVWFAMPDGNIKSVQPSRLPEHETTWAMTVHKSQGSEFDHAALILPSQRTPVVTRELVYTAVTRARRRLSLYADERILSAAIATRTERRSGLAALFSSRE
T4 sequence (P07648 whole entry): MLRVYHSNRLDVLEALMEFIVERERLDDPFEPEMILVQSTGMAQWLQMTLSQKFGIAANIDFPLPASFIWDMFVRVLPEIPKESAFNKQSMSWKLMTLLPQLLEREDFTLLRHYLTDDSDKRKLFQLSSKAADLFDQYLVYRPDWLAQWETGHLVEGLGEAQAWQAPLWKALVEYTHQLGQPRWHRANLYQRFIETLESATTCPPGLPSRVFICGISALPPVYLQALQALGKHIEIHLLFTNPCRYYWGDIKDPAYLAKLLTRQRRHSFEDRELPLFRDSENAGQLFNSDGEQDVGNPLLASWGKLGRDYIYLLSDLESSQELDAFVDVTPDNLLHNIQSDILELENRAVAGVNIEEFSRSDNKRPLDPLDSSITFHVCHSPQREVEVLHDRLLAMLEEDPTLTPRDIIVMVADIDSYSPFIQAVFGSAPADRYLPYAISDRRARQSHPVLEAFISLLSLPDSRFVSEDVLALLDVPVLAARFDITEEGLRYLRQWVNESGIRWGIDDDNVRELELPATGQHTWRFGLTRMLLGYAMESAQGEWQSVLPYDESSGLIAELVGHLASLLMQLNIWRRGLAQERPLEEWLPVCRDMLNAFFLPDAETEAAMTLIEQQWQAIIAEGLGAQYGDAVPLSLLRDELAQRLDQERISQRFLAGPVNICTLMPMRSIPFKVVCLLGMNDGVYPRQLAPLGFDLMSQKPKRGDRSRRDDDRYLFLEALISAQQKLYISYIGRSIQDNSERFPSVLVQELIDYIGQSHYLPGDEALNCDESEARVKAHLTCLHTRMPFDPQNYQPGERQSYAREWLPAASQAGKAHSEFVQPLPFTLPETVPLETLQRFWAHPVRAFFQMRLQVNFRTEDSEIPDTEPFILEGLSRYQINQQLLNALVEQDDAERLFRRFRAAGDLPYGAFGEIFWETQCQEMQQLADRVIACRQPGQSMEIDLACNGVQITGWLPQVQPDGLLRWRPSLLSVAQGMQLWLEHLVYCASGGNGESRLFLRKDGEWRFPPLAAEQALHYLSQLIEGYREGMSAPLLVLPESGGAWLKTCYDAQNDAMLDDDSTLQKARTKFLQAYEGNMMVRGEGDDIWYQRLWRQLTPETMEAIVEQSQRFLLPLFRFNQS
T4 sequence (P08394 whole entry): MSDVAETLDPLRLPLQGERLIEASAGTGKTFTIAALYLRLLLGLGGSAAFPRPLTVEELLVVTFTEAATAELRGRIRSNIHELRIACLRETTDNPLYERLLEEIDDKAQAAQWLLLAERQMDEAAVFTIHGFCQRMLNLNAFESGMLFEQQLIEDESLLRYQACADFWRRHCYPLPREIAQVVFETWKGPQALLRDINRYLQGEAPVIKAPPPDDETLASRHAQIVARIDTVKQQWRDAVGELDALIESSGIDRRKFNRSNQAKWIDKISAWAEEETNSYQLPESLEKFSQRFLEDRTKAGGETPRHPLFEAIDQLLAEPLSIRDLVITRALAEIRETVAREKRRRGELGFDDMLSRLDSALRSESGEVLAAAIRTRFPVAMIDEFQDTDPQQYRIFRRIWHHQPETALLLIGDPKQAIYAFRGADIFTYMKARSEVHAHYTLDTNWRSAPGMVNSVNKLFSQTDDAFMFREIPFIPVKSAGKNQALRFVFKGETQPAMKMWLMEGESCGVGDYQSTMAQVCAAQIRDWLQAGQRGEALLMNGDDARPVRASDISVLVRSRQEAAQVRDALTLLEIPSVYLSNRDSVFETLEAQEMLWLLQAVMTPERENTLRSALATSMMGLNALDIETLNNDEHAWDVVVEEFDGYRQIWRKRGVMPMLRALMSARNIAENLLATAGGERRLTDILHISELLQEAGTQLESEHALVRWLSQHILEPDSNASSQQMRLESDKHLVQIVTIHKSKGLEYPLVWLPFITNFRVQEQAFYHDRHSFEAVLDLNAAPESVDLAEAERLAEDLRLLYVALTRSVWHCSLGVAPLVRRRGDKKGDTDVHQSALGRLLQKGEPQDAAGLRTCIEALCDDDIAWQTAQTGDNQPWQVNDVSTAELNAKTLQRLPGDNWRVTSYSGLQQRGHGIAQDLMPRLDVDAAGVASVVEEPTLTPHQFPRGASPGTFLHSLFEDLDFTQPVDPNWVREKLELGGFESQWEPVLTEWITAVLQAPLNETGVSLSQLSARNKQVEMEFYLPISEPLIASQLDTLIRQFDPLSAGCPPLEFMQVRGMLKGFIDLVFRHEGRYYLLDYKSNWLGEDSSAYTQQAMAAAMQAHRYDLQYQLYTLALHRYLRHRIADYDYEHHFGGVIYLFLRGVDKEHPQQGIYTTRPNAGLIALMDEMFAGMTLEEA

[6] = Counterscreen for AddAB inhibitors: absorbance-based bacterial cell-based high throughput dose response assay for inhibitors of bacterial viability. [Related pubchem assays (depositor defined):AID435030, AID449728, AID449731, AID488942, AID488955, AID488956]; assay type: functional
[7] = insulin promoter down-regulators in MIN6 cells, imaging, high-content screening, mouse beta cells (AID 1628); assay type: functional
[8] = cytotoxicity in MIN6 insulinoma cells, dose response, cytotoxicity control, cell-based, mouse insulinoma (AID 2122); assay type: functional;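 also: confirmatory high-throughput counterscreen run to flag cytotoxic compounds; mouse MIN-6 beta cells carrying an insulin promoter eGFP reporter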
Tumor necrosis factor = Tumor necrosis factor (Homo sapiens, UniProt P01375); assay: TNFa-triggered NF-kB activation inhibitors, SAR follow-up, cell-based, revised (AID 2337); assay type: functional
Sequence of Tumor necrosis factor (P01375 whole entry, the tested form may be a part): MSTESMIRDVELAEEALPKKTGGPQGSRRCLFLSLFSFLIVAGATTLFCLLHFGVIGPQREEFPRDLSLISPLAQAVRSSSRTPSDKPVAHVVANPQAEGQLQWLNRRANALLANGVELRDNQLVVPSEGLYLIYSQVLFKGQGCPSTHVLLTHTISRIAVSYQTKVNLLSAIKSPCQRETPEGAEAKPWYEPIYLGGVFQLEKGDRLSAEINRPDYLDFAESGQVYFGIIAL

[9] = biological target: T5, Nucleotide-binding oligomerization domain-containing protein 1 (Homo sapiens, UniProt Q9Y239); assay: NOD1 signaling inhibitors, SAR follow-up, revised (AID 2333); assay type: functional
T5 sequence (Q9Y239 whole entry): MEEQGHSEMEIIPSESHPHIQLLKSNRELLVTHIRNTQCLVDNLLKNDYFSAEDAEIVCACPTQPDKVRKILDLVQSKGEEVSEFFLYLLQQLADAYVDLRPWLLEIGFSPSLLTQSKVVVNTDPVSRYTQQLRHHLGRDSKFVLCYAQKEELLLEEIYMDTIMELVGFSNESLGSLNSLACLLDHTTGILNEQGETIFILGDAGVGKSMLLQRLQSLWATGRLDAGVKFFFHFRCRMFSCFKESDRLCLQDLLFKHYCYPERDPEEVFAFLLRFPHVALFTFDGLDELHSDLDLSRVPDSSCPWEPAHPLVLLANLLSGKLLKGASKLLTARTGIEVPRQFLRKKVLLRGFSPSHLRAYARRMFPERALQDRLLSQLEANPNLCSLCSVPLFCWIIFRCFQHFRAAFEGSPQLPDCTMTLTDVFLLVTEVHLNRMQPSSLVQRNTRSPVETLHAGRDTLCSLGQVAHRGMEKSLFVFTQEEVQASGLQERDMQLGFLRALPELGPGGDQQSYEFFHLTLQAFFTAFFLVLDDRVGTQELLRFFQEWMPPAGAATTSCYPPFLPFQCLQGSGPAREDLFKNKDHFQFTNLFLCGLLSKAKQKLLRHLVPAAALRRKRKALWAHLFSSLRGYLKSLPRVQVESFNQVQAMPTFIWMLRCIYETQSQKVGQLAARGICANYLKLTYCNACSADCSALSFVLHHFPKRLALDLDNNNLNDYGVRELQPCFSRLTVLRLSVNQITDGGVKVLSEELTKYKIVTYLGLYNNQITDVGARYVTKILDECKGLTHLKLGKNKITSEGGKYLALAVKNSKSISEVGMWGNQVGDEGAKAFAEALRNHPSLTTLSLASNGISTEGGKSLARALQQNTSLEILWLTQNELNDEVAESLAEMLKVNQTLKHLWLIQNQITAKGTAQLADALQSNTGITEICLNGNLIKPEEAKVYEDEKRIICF

HEK293 = assay: cells; settings: Homo sapiens

## CCC[C@@H](CN1CCC[C@H]1CN1C(N)=NC[C@@H]1Cc1ccccc1)N1C[C@@H](Cc2ccccc2)N(CCCC2CCCC2)C1=N
[1]
  IC50: > 20 µM (inactive)
Troponin, cardiac muscle
  EC50: > 71.4 µM (inactive)

## CC/C(=N\NS(C)(=O)=O)c1ccccc1
[2]
  IC50: > 100 µM (inactive)
[3]
  IC50: > 100 µM (not active)

## O=C(COC(=O)c1cc2ccccc2oc1=O)c1cccc([N+](=O)[O-])c1
Beta-galactosidase
  EC50: > 40 µM (inactive)
[4]
  IC50: > 40 µM (not active)

## Nc1ccc(C(=O)OCCCc2nc3cc4ccccc4cc3[nH]2)cc1
[5]
  CC50: 46 µM (active)
Vero
  IC50: > 25 µM (active)

## NC(=O)c1ccsc1NC(=O)COC(=O)c1ccc([N+](=O)[O-])o1
Exodeoxyribonuclease V
  IC50: > 119 µM (inactive)
[6]
  IC50: > 39.5 µM (inactive)

## C(#Cc1ccccc1)C[N+]1(CC#Cc2cccc3ccccc23)CCOCC1
[7]
  IC50: 2.29 µM (active)
[8]
  IC50: 2.19 µM (active)

## COc1cccc(N2CC(C)Cn3c2nc2c3c(=O)[nH]c(=O)n2C)c1 (centres undefined)
Beta-galactosidase
  EC50: > 40 µM (inactive)
[4]
  IC50: > 40 µM (not active)

## CCCOc1ccc(C=NN=C(S)Nc2ccccc2[N+](=O)[O-])c(O)c1
Tumor necrosis factor
  IC50: 880 nM (active)
[9]
  IC50: 7.73 µM (active)
HEK293
  IC50: > 20 µM (inactive)

## c1ccc(N2CCN(Cc3ccnc4ccccc34)CC2)cc1
[7]
  IC50: 3.42 µM (active)
[8]
  IC50: 2.84 µM (active)

## COc1ccc2c(c1)CCc1c(C(=O)Nc3cc(C)n(Cc4ccc(Cl)cc4)n3)noc1-2
[2]
  IC50: > 100 µM (inactive)
[3]
  IC50: > 100 µM (not active)

## Brc1ccc2[nH]c3c(c2c1)CCC3
Vero
  IC50: > 25 µM (active)

## COc1cccc(/C(O)=C/C=N/c2cc(C)ccc2O)c1
[2]
  IC50: > 100 µM (inactive)
[3]
  IC50: > 100 µM (not active)
